Test results as given in ChEMBL document CHEMBL4364241, “Developments in the anticancer activity of structurally modified curcumin: An up-to-date review” (Eur J Med Chem, 2019).

Columns and labels:
HepG2 = assay: Cytotoxicity against human HepG2 Cells by MTT/Trypan Blue Exclusion Assay; format: functional, cell-based
PC-3 = assay: Cytotoxicity against human PC3 cells by MTT assay; format: functional, cell-based
A549 = assay: Cytotoxicity against human A549 Cells by MTT assay; format: functional, cell-based
NCI-H460 = assay: Cytotoxicity against human H460 cells by MTT assay; format: functional, cell-based
MCF7 [1] = assay: Cytotoxicity against human MCF7 cells by MTT assay; format: functional, cell-based
MIA PaCa-2 = assay: Cytotoxicity against human MIAPaCa2 cells by MTT assay; format: functional, cell-based
PANC-1 = assay: Cytotoxicity against human PANC1 cells by MTT assay; format: functional, cell-based
HT-29 = assay: Cytotoxicity against human HT-29 cells by MTT assay; format: functional, cell-based
[2] = Cytotoxicity against human GBM3 Cells 48 hrs by MTS assay; format: functional; conditions: GBM3, 48 h
[3] = Cytotoxicity against human GBM5 Cells 48 hrs by MTS assay; format: functional
[4] = Cytotoxicity against human GBM6 Cells 48 hrs by MTS assay; format: functional; conditions: GBM6, 48 h
U-87 MG = assay: Cytotoxicity against human U87MG Cells 48 hrs by MTS assay; format: functional, cell-based, U-87MG ATCC
[5] = Cytotoxicity against human GBM2 Cells 48 hrs by MTS assay; format: functional; conditions: GBM2, 48 h
U373 MG = assay: Cytotoxicity against human U373MG Cells 48 hrs by MTS assay; format: functional, cell-based, U-373MG ATCC
[6] = Cytotoxicity against human GBM1 Cells 48 hrs by MTS assay; format: functional; conditions: GBM1, 48 h
[7] = Cytotoxicity against human GBM4 Cells 48 hrs by MTS assay; format: functional
U-251 = assay: Cytotoxicity against human U251MG cells after 48 hrs by MTS assay; format: functional, cell-based; conditions: U-251, 48 h
HeLa = assay: Cytotoxicity against human HeLa Cells; format: functional, cell-based
MDA-MB-231 = assay: Cytotoxicity against human MDA-MB-231 cells; format: functional, cell-based
MCF7 [8] = assay: Cytotoxicity against human MCF7 cells; format: functional, cell-based
[9] = Antiproliferative activity against human K562/G01 cells; format: functional, cell-based
K562 = assay: Antiproliferative activity against human K562 Cells; format: functional, cell-based

For `COc1cc(CCC2=NC(=S)N=C(CCc3ccc(O)c(OC)c3)C2=Cc2coc3c(OC)c4occc4c(OC)c3c2=O)ccc1O`, the IC50 (HepG2) was 23 µM.

For `CCOC(OCC)c1ccc(CC2CN(C)CC(Cc3ccc(C(OCC)OCC)cc3)C2=NO)cc1` (configuration not stated), the IC50 (PC-3) was 200 nM, the IC50 (A549) was 300 nM and the IC50 (NCI-H460) was 200 nM. The IC50 (MCF7 [1]) was 200 nM, the IC50 (MIA PaCa-2) was 400 nM and the IC50 (PANC-1) was 400 nM. The IC50 (HT-29) was 400 nM.

Molecule `C=CC(=O)NC(c1ccccc1)C(C(=O)/C=C/c1cccc(O)c1)C(=O)/C=C/c1cccc(O)c1` (configuration not stated) has an IC50 [2] of 1450 nM, an IC50 [3] of 920 nM and an IC50 [4] of 2320 nM. It also gave an IC50 (U-87 MG) of 380 nM, an IC50 [5] of 1430 nM and an IC50 (U373 MG) greater than 5 µM. For the same molecule, the IC50 [6] was 870 nM, the IC50 [7] was 1260 nM and the IC50 (U-251) was 330 nM.

`COc1ccc(OC)c(/C=C/C(=O)/C=C/c2cc(OC)ccc2OC)c1` gave an IC50 (HeLa) of 14 µM, an IC50 (MDA-MB-231) of 1520 nM and an IC50 (MCF7 [8]) of 3.02 µM.

For `COc1cc(/C=C/C(=O)C(=Cc2ccncc2)C(=O)/C=C/c2ccc(O)c(OC)c2)ccc1O`, the IC50 [9] was 600 nM and the IC50 (K562) was 1100 nM.
